Test [1] concerns the target T1, TtgR (Pseudomonas putida, UniProt Q9AIU0).
T1 construct: full-length, ttgR in pET29a+, expressed in E. coli B834(DE3); heparin and gel filtration purification; homodimer; residues about 10-210 seen in crystals
The experiment in a line: isothermal titration calorimetry. In kind it is binding. In general terms: ITC needs no label: the signal is the heat of the interaction.

For test [2], the target named is TtgR (Pseudomonas putida, UniProt Q9AIU0, R176G). The experiment in a line: biochemical.
Test [3] concerns the target T1, TtgR. The experiment in a line: X-ray crystal structure of complex. Particulars: general binding site, 2 per dimer; co-crystal, 2.4 Å.

The Kd is the constant that tells how readily two partners part at equilibrium. A low value points to tighter binding. In the case of `O=C(CCc1ccc(O)cc1)c1c(O)cc(O)cc1O` [phloretin], the Kd in test [1] is 0.05 ± 0.01 µM; in test [2], 9.2 ± 0.5 µM.

On to `O=c1c(O)c(-c2ccc(O)c(O)c2)oc2cc(O)cc(O)c12` [quercetin], for which, in test [3], the “X-ray crystal structure of complex” value is “Both effectors bind at similar locations to the hydrophobic binding site as tetracycline and chloramphenicol”.

For the origin of these results see PMC2756574, “Crystal Structures of Multidrug Binding Protein TtgR in Complex with Antibiotics and Plant Antimicrobials” (Journal of Molecular Biology, 2007).
